Among the data in publication PMC7717600, “Novel [(N-alkyl-3-indolylmethylene)hydrazono]oxindoles arrest cell cycle and induce cell apoptosis by inhibiting CDK2 and Bcl-2: synthesis, biological evaluation and in silico studies” (Journal of Enzyme Inhibition and Medicinal Chemistry, 2020) are GI50 and CC50 values, retold here.

The test system of assay [1] is 786-0. As to the kind of experiment: cells. The conditions noted are these: Homo sapiens.
In assay [2] the test system is RPMI-8226. Description: cells. The conditions noted are these: Homo sapiens.

The GI50 is the concentration that inhibits growth by half.

On to `CCCn1cc(C=NN=C2C(=O)Nc3ccc(C)cc32)c2ccccc21` [Compound 8a], for which the GI50 in assay [1] (786-0) came to 5.94 µM; in assay [2] (RPMI-8226), 1.33 µM. Further, the CC50 in assay [1] (786-0, read-out: LC50) was > 100 µM; in assay [2] (RPMI-8226, read-out: LC50), > 100 µM.
